From patent US20240287138A1, “CYCLIC PEPTIDES FOR INHIBITING TNF RECEPTOR 1 ACTIVITY” (Merck Sharp & Dohme LLC, priority 2023, published 2024)
Like-named read-outs stand apart in the source and are kept apart here. Numbered stars: 1 amine (or outer) side, 2 acyl side, 3 side chain; on linkers, the order of the positions; unused ones are H or OH. Square brackets hold non-standard residues; d marks the D form. Peptide text beside a SMILES is read from it. * marks the point of attachment. Trp(βS-Me,7-OMe) = COc1cccc2c([C@H](C)[C@H](N)C(=O)O)c[nH]c12; Trp(1-CH2COOH) = N[C@@H](Cc1cn(CC(=O)O)c2ccccc12)C(=O)O; Phe(4-CH2CH2COOH) = N[C@@H](Cc1ccc(CCC(=O)O)cc1)C(=O)O; Phe(4-SO2NH2) = N[C@@H](Cc1ccc(S(N)(=O)=O)cc1)C(=O)O; dPro(trans-4-NMe2) = CN(C)[C@@H]1CN[C@@H](C(=O)O)C1; Trp(7-CN) = N#Cc1cccc2c(C[C@H](N)C(=O)O)c[nH]c12; Trp(7-Cl) = N[C@@H](Cc1c[nH]c2c(Cl)cccc12)C(=O)O; X20 = O=C1NCc2ccc(C[C@H](N[*:1])C(=O)[*:2])cc21; Phe(4-CONH2) = NC(=O)c1ccc(C[C@H](N)C(=O)O)cc1; Phe(4-COOH) = N[C@@H](Cc1ccc(C(=O)O)cc1)C(=O)O; 4Pal(3S-Me) = C[C@@H](c1ccncc1)[C@H](N)C(=O)O; Trp(7-aza) = N[C@@H](Cc1c[nH]c2ncccc12)C(=O)O; Pip(5R-OH) = O=C(O)[C@@H]1CC[C@@H](O)CN1; X1 = O=C([C@@H]1CC[C@H](N[*:1])C1)[*:2]; Nle(5,5-F2) = CC(F)(F)CC[C@H](N)C(=O)O; Met(O2) = CS(=O)(=O)CC[C@H](N)C(=O)O; Pip(4-aza) = O=C(O)[C@@H]1CNCCN1; 4Pal = N[C@@H](Cc1ccncc1)C(=O)O; NMeE = CN[C@@H](CCC(=O)O)C(=O)O; dHyp = O=C(O)[C@H]1C[C@H](O)CN1; Ahp(2) = CCCCC[C@H](N)C(=O)O; hSer = N[C@@H](CCO)C(=O)O; αMeS = C[C@](N)(CO)C(=O)O; Carboxymethyl = O=C(O)C*; Nle = CCCC[C@H](N)C(=O)O; Sar = CNCC(=O)O

Biological target: T1, human soluble TNFR1 (sTNFR1) (Homo sapiens, UniProt P19438)
T1 construct: made in house; host or cells: Sf21 (baculovirus)
T1 sequence (P19438 with tags, fused parts or gaps): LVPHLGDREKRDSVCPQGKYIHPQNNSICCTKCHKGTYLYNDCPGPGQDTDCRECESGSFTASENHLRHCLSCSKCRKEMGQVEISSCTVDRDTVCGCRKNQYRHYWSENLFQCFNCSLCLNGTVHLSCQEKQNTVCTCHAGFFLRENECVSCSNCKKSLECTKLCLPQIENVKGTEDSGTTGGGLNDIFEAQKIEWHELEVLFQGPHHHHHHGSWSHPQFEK
Experiment: Human sTNFR1-peptide displacement assay (LanthaScreen Eu TR-FRET binding assay)
Method in brief: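 Readout is the 665/615 nm TR-FRET ratio (Eu anti-His donor, streptavidin-Alexa647 acceptor), normalized to DMSO and saturating displacer, fit by Morrison-based five-parameter logistic for Kd^app. His-tagged sTNFR1 (1-211) prebound to 100 nM biotinylated peptide SEQ ID NO.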

[1] = displacement of biotinylated peptide SEQ ID NO. 1 from sTNFR1, 20 point titration, 5-parameter fit based on Morrison equation (tight binding), read-out: TR-FRET Kd^app

SMILES | Kd | Kd [1]
COc1cccc2c([C@H](C)[C@@H]3NC(=O)CN(C)C(=O)[C@H](Cc4ccc(O)cc4)NC(=O)[C@H](Cc4ccc(C(=O)O)cc4)NC(=O)[C@](C)(CO)NC(=O)[C@H](Cc4c[nH]c5c(Cl)cccc45)NC(=O)[C@H](Cc4ccncc4)NC(=O)[C@H](CC(N)=O)NC(=O)[C@H](CCC(=O)O)N(C)C(=O)[C@H](Cc4c[nH]c5ccccc45)NC(=O)[C@@H]4CNCCN4C(=O)[C@H](Cc4ccncc4)NC(=O)[C@H](CCC(C)(F)F)NC(=O)[C@@H]4CC[C@@H](C4)NC3=O)c[nH]c12 [SEQ ID NO. 275] (cyclo([4Pal][Trp(7-Cl)][αMeS][Phe(4-COOH)]Y[Sar][Trp(βS-Me,7-OMe)][X1][Nle(5,5-F2)][4Pal][Pip(4-aza)]W[NMeE]N)) | 0.36 nM | –
CCCC[C@@H]1NC(=O)[C@@H]2CC[C@@H](C2)NC(=O)[C@H]([C@@H](C)c2c[nH]c3c(OC)cccc23)NC(=O)CN(C)C(=O)[C@H](Cc2ccc(C(N)=O)cc2)NC(=O)[C@H](Cc2ccc(C(N)=O)cc2)NC(=O)[C@](C)(CO)NC(=O)[C@H](Cc2c[nH]c3c(C#N)cccc23)NC(=O)[C@H](Cc2ccc3c(c2)C(=O)NC3)NC(=O)[C@H](CC(N)=O)NC(=O)[C@H]2C[C@H](OCC(=O)O)CN2C(=O)[C@H](Cc2cn(CC(=O)O)c3ccccc23)NC(=O)[C@@H]2CC[C@@H](O)CN2C(=O)[C@H](Cc2ccncc2)NC1=O [SEQ ID NO. 22] (cyclo([4Pal][Pip(5R-OH)][Trp(1-CH2COOH)][dHyp](Carboxymethyl)N[X20][Trp(7-CN)][αMeS][Phe(4-CONH2)][Phe(4-CONH2)][Sar][Trp(βS-Me,7-OMe)][X1][Nle])) | – | 0.08 nM
CCCC[C@@H]1NC(=O)[C@@H]2CC[C@@H](C2)NC(=O)[C@H]([C@@H](C)c2c[nH]c3c(OC)cccc23)NC(=O)CN(C)C(=O)[C@H](Cc2ccc(C(N)=O)cc2)NC(=O)[C@H](Cc2ccc(S(N)(=O)=O)cc2)NC(=O)[C@](C)(CO)NC(=O)[C@H](Cc2c[nH]c3c(C#N)cccc23)NC(=O)[C@H](Cc2ccc(C(=O)O)cc2)NC(=O)[C@H](CC(N)=O)NC(=O)[C@H]2C[C@H](N(C)C)CN2C(=O)[C@H](Cc2cn(CC(=O)O)c3ccccc23)NC(=O)[C@@H]2CC[C@@H](O)CN2C(=O)[C@H](Cc2ccncc2)NC1=O [SEQ ID NO. 2] (cyclo([4Pal][Pip(5R-OH)][Trp(1-CH2COOH)][dPro(trans-4-NMe2)]N[Phe(4-COOH)][Trp(7-CN)][αMeS][Phe(4-SO2NH2)][Phe(4-CONH2)][Sar][Trp(βS-Me,7-OMe)][X1][Nle])) | 0.07 nM | –
CCCC[C@@H]1NC(=O)[C@@H]2CC[C@@H](C2)NC(=O)[C@H]([C@@H](C)c2c[nH]c3c(OC)cccc23)NC(=O)CN(C)C(=O)[C@H](Cc2ccc(CCC(=O)O)cc2)NC(=O)[C@H](Cc2ccc(S(N)(=O)=O)cc2)NC(=O)[C@](C)(CO)NC(=O)[C@H](Cc2c[nH]c3c(C#N)cccc23)NC(=O)[C@H](Cc2ccc(OCC(=O)O)cc2)NC(=O)[C@H](CC(N)=O)NC(=O)[C@H]2C[C@H](O)CN2C(=O)[C@H](Cc2c[nH]c3ncccc23)NC(=O)[C@@H]2CC[C@@H](O)CN2C(=O)[C@H](Cc2ccncc2)NC1=O [SEQ ID NO. 30] (cyclo([4Pal][Pip(5R-OH)][Trp(7-aza)][dHyp]NY(Carboxymethyl)[Trp(7-CN)][αMeS][Phe(4-SO2NH2)][Phe(4-CH2CH2COOH)][Sar][Trp(βS-Me,7-OMe)][X1][Nle])) | – | 0.07 nM
CCCCC[C@@H]1NC(=O)[C@@H]2CC[C@@H](C2)NC(=O)[C@H]([C@@H](C)c2c[nH]c3c(OC)cccc23)NC(=O)CN(C)C(=O)[C@H](Cc2ccc(C(N)=O)cc2)NC(=O)[C@H](Cc2ccc(C(N)=O)cc2)NC(=O)[C@](C)(CO)NC(=O)[C@H](Cc2c[nH]c3c(C#N)cccc23)NC(=O)[C@H](Cc2ccc(C(=O)O)cc2)NC(=O)[C@H](CC(N)=O)NC(=O)[C@H]2C[C@H](O)CN2C(=O)[C@H](Cc2c[nH]c3ccccc23)NC(=O)[C@H](CCS(C)(=O)=O)NC(=O)[C@H]([C@@H](C)c2ccncc2)NC1=O [SEQ ID NO. 49] (cyclo([Ahp(2)][4Pal(3S-Me)][Met(O2)]W[dHyp]N[Phe(4-COOH)][Trp(7-CN)][αMeS][Phe(4-CONH2)][Phe(4-CONH2)][Sar][Trp(βS-Me,7-OMe)][X1])) | 0.2 nM | –
CCCCC[C@@H]1NC(=O)[C@@H]2CC[C@@H](C2)NC(=O)[C@H]([C@@H](C)c2c[nH]c3c(OC)cccc23)NC(=O)CN(C)C(=O)[C@H](Cc2ccc(C(N)=O)cc2)NC(=O)[C@H](Cc2ccc(C(N)=O)cc2)NC(=O)[C@](C)(CO)NC(=O)[C@H](Cc2c[nH]c3c(C#N)cccc23)NC(=O)[C@H](Cc2ccc(C(=O)O)cc2)NC(=O)[C@H](CC(N)=O)NC(=O)[C@H]2C[C@H](O)CN2C(=O)[C@H](Cc2c[nH]c3ccccc23)NC(=O)[C@H](CCO)NC(=O)[C@H]([C@@H](C)c2ccncc2)NC1=O [SEQ ID NO. 50] (cyclo([Ahp(2)][4Pal(3S-Me)][hSer]W[dHyp]N[Phe(4-COOH)][Trp(7-CN)][αMeS][Phe(4-CONH2)][Phe(4-CONH2)][Sar][Trp(βS-Me,7-OMe)][X1])) | 0.2 nM | –
